Experimental data published in patent US6011070A, “Slow-onset, long-lasting dopamine reuptake blockers” (priority 1997, dated 2000).
Entries after “also recorded” stand apart in the source; their conditions may differ. Read-outs that look alike come from different tables or passages of the source.

Tests used:
squirrel monkeys = assay: Locomotor response in primates (Example 5); type: in vivo
male Swiss-Webster mice [1] = assay: Dose response study of induced locomotor stimulation (Digiscan), 1 h session (Example 2); type: in vivo, Swiss-Webster mice (Hsd:ND4); details: IP; for Maximal Effect Relative to Cocaine / ED50: locomotor activity; for ED50: Mus musculus, 30-60 min period
Description: A dose response study of induced locomotor stimulation was conducted according to the following procedure. The study was conducted using a 16 or 32 Digiscan locomotor activity testing chambers (40.5×40.5×30.5 cm) housed in sets of two, within sound-attenuating chambers. A panel of infrared beams (16 beams) and corresponding photodetectors were located in the horizontal direction along the sides of each activity chamber. A 15-W incandescent light above each chamber provided dim illumination. Fans provided an 80-dB ambient noise level within the chamber. Separate groups of 8 non-habituated male Swiss-Webster mice (Hsd:ND4, aged 2-3 months) were injected via the intraperitoneal (IP) route with either vehicle (deionized water for Compounds 1-4, carboxymethylcellulose for Compound 6 or methyl cellulose for Compound 7)) or test compound (1, 2.5, 5, 10, 25 or 50 mg/kg for Compound 3; 1, 3, 10 and 30 mg/kg for Compounds 1, 2 and 4; 3, 10, 30 or 100 mg/kg for Compound 6; and 1, 3, 10, 30 and 100 mg/kg for Compound 7). Compounds 1-4 were injected immediately prior to locomotor activity testing. […] In all studies, horizontal activity (interruption of photocell beams) was measured for 1 hour within 10 minute periods. Testing was conducted with one mouse per activity chamber.
FIGS. 1, 3, 5 and 7 show average horizontal activity counts/10 minutes as a function of time, immediately following injection of Compound 1, Compound 2, Compound 3 and Compound 4, respectively. FIGS. 13 and 15 show average horizontal activity counts/10 minutes as a function of time, beginning twenty minutes following injection of Compound 6 and Compound 7, respectively. The period 30-60 minutes was selected for analysis of dose-response data. Using TableCurve 2D v2.03 software (Jandel Scientific), the mean average horizontal activity counts/10 minutes for this period were fit to a 3-parameter logistic peak function of log10 dose (with the constant set to 1989, the mean of the vehicle-treated group), and the maximum effect estimated from the resulting curve. […] FIGS. 2, 4, 6, 8, 14 and 16 show average horizontal activity counts/10 minutes over 30 minutes versus the amount administered of Compound 1, Compound 2, Compound 3, Compound 4, Compound 6 and Compound 7, respectively.

male Swiss-Webster mice [2] = assay: Time course study of locomotor stimulation over 8 hours (Example 6); type: in vivo, Swiss-Webster mice (Hsd:ND4); details: for ED50: Mus musculus, ip, read-out: ED50 (dose producing one half maximal stimulant activity); for Maximum effect (horizontal activity) / Dose of maximum effect: logistic peak fit
Description: A dose response study of induced locomotor stimulation was conducted according to the following procedure. The study was conducted using 16 Digiscan locomotor activity testing chambers (40.5×40.5×30.5 cm) housed in sets of two, within sound-attenuating chambers. A panel of infrared beams (16 beams) and corresponding photodetectors were located in the horizontal direction along the sides of each activity chamber. A 7.5-W incandescent light above each chamber provided dim illumination. Fans provided an 80-dB ambient noise level within the chamber. Separate groups of 8 non-habituated male Swiss-Webster mice (Hsd:ND4, aged 2-3 months) were injected via the intraperitoneal (IP) route with either vehicle (0.9% saline) or test compound (5, 10, 20 or 40 mg/kg), immediately prior to locomotor activity testing. In all studies, horizontal activity (interruption of photocell beams) was measured for 8 hours within 10 minute periods, beginning at […]) two hours after lights on). Testing was conducted with one mouse per activity chamber.
Stimulant effects of 10, 20 and 40 mg/kg occurred within 10 minutes following injection and lasted up to 3 hours. […] Using TableCurve 2D v2.03 software (Jandel Scientific), the mean average horizontal activity counts for this 30-min period were fit to a 3-parameter logistic peak function of log10 dose (with the constant set to 3172, the mean of the saline-treated group), and the maximum was estimated from the resulting curve (maximum=6059 counts/10 min at 18.3 mg/kg).
Separate groups of eight mice were injected with either vehicle (deionized water) or Compound 2 (1, 3, 10 pr 30 mg/kg) immediately prior to locomotor activity testing.
Stimulant effects occurred within 40 to 70 minutes following injection and lasted 4 to ≥7 hours. The time period 280-310 min was selected for analysis of dose-response data because this was the time period in which maximal stimulant effects first appeared as a function of dose. Using TableCurve 2D v2.03 software (Jandel Scientific), the mean average horizontal activity counts/10 min for this period were fit to a 3-parameter logistic peak function of log10 dose (with the constant set to 399, the mean of the vehicle-treated group), and the maximum effect estimated from the resulting curve (maximum=4581 counts/10 min at 12.9 mg/kg).

[3] = system: cocaine-induced stimulation; assay: Interaction study: block of cocaine-induced locomotor stimulation (20 mg/kg cocaine IP) (Example 3); type: in vivo, Swiss-Webster mice; details: for ED50: Mus musculus, ip, read-out: AD50 (dose attenuating cocaine-induced stimulation by 50%)
Description: This interaction study was conducted using 16 Digiscan locomotor activity testing chambers as described in Example 2. […] When testing the effects of Compounds 6 and 7, mice were placed in the Digiscan apparatus twenty minutes after the injection of the test compound or vehicle.
FIGS. 9, 17 and 19 show average horizontal activity counts for the different treatment groups as a function of time. […] FIGS. 10, 18 and 20 show average horizontal activity counts/10 min for different treatment groups as a function of dose.
A one-way analysis of variance conducted on log10 horizontal activity counts for the selected time period indicated a significant overall effect for the treatment groups; F(4,35)=[…] for Compound 2; F(5,42)=[…] for Compound 6; and F((5,42)=8.96 p<0.5). […] All ps<0.05 are denoted in FIGS. 10, 18 and 20 with an asterisk.

[4] = read-out: ED50 (dose producing 1/2 maximal stimulant activity)

With CNC1CC(c2ccc(Cl)c(Cl)c2)c2ccccc21 (centres unmarked) [Compound 5] the “Duration of stimulated locomotor activity / increased response rate” value (squirrel monkeys; 0.3 mg/kg Compound 5) was “two to four”, the “Number of Responses/Second” value (squirrel monkeys; 0.3 mg/kg Compound 5, Day 1, Monkey 1 (control 0.74)) was 1.29 responses/second and the “Number of Responses/Second” value (squirrel monkeys; 0.3 mg/kg Compound 5, Day 1, Monkey 2 (control 0.72)) was 0.87 responses/second. The “Number of Responses/Second” value (squirrel monkeys; 0.3 mg/kg Compound 5, Day 1, Monkey 3 (control 0.92)) was 1.11 responses/second, the “Number of Responses/Second” value (squirrel monkeys; 0.3 mg/kg Compound 5, Day 2, Monkey 1 (control 0.74)) was 0.99 responses/second and the “Number of Responses/Second” value (squirrel monkeys; 0.3 mg/kg Compound 5, Day 2, Monkey 2 (control 0.72)) was 1.18 responses/second. For the same compound, the “Number of Responses/Second” value (squirrel monkeys; 0.3 mg/kg Compound 5, Day 2, Monkey 3 (control 0.92)) was 1.28 responses/second, the “Number of Responses/Second” value (squirrel monkeys; 0.3 mg/kg Compound 5, Day 3, Monkey 1 (control 0.74)) was 0.75 responses/second and the “Number of Responses/Second” value (squirrel monkeys; 0.3 mg/kg Compound 5, Day 3, Monkey 2 (control 0.72)) was 0.88 responses/second. For the same compound, the “Number of Responses/Second” value (squirrel monkeys; 0.3 mg/kg Compound 5, Day 3, Monkey 3 (control 0.92)) was 1.13 responses/second, the “Number of Responses/Second” value (squirrel monkeys; 0.3 mg/kg Compound 5, Day 4, Monkey 1 (control 0.74)) was 0.79 responses/second and the “Number of Responses/Second” value (squirrel monkeys; 0.3 mg/kg Compound 5, Day 4, Monkey 2 (control 0.72)) was 0.74 responses/second. The “Number of Responses/Second” value (squirrel monkeys; 0.3 mg/kg Compound 5, Day 4, Monkey 3 (control 0.92)) was 1.01 responses/second.

For CCNC1CC(c2ccc(Cl)c(Cl)c2)c2ccccc21 (centres unmarked) [Compound 4], the “Maximal Effect Relative to Cocaine” value (male Swiss-Webster mice [1]) was 1.07 and the ED50 (male Swiss-Webster mice [1]; [4]) was 3.9 mg/kg.

In the case of COC(=O)[C@H]1[C@@H](OC(=O)c2ccccc2)C[C@@H]2CC[C@H]1N2C [Cocaine, reference compound], the ED50 (male Swiss-Webster mice [2]; 0.5 h) is reported as 8.8 mg/kg, the “Duration of stimulant effects” value (male Swiss-Webster mice [2]; cocaine 10, 20 and 40 mg/kg IP) is reported as “up to 3 hours” and the “Onset of stimulant effects following injection” value (male Swiss-Webster mice [2]; cocaine 10, 20 and 40 mg/kg IP) is reported as at most 10 min. For the same compound, the “Maximum effect (horizontal activity)” value (male Swiss-Webster mice [2]; cocaine, 0-30 min, at 18.3 mg/kg) was 6059 counts/10 min, the “Dose of maximum effect” value (male Swiss-Webster mice [2]; cocaine, 0-30 min) was 18.3 mg/kg and the “Stimulation of locomotor activity” value (male Swiss-Webster mice [2]; cocaine, doses from 10 to 40 mg/kg IP) was “time-dependent stimulation of locomotor activity”. For the same compound, the “Period of maximal stimulant effects” value (male Swiss-Webster mice [2]; first minutes following 20 mg/kg cocaine) was at most 30 min, the “Control rate of responding maintained by cocaine (drug component)” value (“Control rate of responding maintained” below) (male rhesus monkeys; 0.0032 mg/kg/inj cocaine, monkey 89B013) was 0.51 responses/sec and the “Control rate of responding maintained” value (male rhesus monkeys; 0.0032 mg/kg/inj cocaine, monkey 89B056) was 0.79 responses/sec. For the same compound, the “Control rate of responding maintained” value (male rhesus monkeys; 0.0032 mg/kg/inj cocaine, monkey J3A) was 0.57 responses/sec, the “Control rate of responding maintained” value (male rhesus monkeys; 0.01 mg/kg/inj cocaine, monkey WH8) was 0.45 responses/sec and the “Unit dose of cocaine maintaining maximal rates of self-administration” value (male rhesus monkeys; control conditions, monkey WH8) was 0.01 mg/kg/inj. For the same compound, the “Unit dose of cocaine maintaining maximal rates of self-administration” value (male rhesus monkeys; control conditions, monkeys 89B056 and J3A) was 0.0032 mg/kg/inj and the “Shape of dose-effect curve for cocaine self-administration” value (male rhesus monkeys; control conditions, no pretreatment) was “inverted-U shape”.

CCCN(C)C1CC(c2ccc(Cl)c(Cl)c2)c2ccccc21 (centres unmarked) [Compound 2] was tested, and the “Maximal Effect Relative to Cocaine” value (male Swiss-Webster mice [1]) was 0.51, the ED50 (male Swiss-Webster mice [1]; [4]) was 5.65 mg/kg and the “Effect on cocaine-induced locomotor stimulation” value ([3]; 20 mg/kg cocaine IP) was “antagonized the stimulant effect of cocaine; also recorded: block cocaine induced locomotor activity”. The “Dose with significant difference against the cocaine group (planned comparisons)” value ([3]; 20 mg/kg cocaine IP, 0-30 min, p<0.05) was 30 mg/kg, the ED50 [3] was 13.8 mg/kg and the “Period of maximal stimulant effects” value (male Swiss-Webster mice [2]; Compound 2) was 280 to 310 min. For the same compound, the “Duration of stimulant effects” value (male Swiss-Webster mice [2]; Compound 2, 3 to 30 mg/kg) was “UP TO SEVEN”, the “Maximal effect/cocaine maximal effect ratio (ME/CME)” value (male Swiss-Webster mice [2]; Compound 2, 280-310 min) was 1.4 and the “Maximum effect (horizontal activity)” value (male Swiss-Webster mice [2]; Compound 2, 280-310 min, at 12.9 mg/kg) was 4581 counts/10 min. The “Dose of maximum effect” value (male Swiss-Webster mice [2]; Compound 2, 280-310 min) was 12.9 mg/kg, the “Stimulation of locomotor activity” value (male Swiss-Webster mice [2]; Compound 2, doses from 3 to 30 mg/kg) was “time-dependent stimulation of locomotor activity” and the ED50 (male Swiss-Webster mice [2]; 310 min, Compound 2, 280-310 min, 1 to 10 mg/kg ascending portion) was 3.3 mg/kg.

In the case of CC(C)(C)NC1CC(c2ccc(Cl)c(Cl)c2)c2ccccc21 (centres unmarked) [Compound 6], the ED50 (male Swiss-Webster mice [1]; [4]) is reported as 506 mg/kg, the “Effect on cocaine-induced locomotor stimulation” value ([3]; 20 mg/kg cocaine IP) is reported as “antagonized the stimulant effect of cocaine” and the ED50 [3] is reported as 23.6 mg/kg.

With CCN(C)C1CC(c2ccc(Cl)c(Cl)c2)c2ccccc21 (centres unmarked) [Compound 3] the “Maximal Effect Relative to Cocaine” value (male Swiss-Webster mice [1]) was 0.93 and the ED50 (male Swiss-Webster mice [1]; [4]) was 10.8 mg/kg.

For CN(C1CC(c2ccc(Cl)c(Cl)c2)c2ccccc21)C(C)(C)C (centres unmarked) [Compound 7], the “Effect on locomotor activity” value (male Swiss-Webster mice [1]) was “inhibited locomotor activity”, the ED50 (male Swiss-Webster mice [1]; read-out: ID50 (dose producing 1/2 maximal inhibitory activity)) was 184 mg/kg and the “Effect on cocaine-induced locomotor stimulation” value ([3]; 20 mg/kg cocaine IP) was “antagonized the stimulant effect of cocaine; also recorded: block cocaine induced locomotor activity”. The ED50 [3] was 42.5 mg/kg.
